Data from patent publication US20060210479A1 (Dow Global Technologies Inc., priority 2004, published 2006).
Like-named read-outs stand apart in the source and are kept apart here.

Assays:
HEK293 cells = test: Adsorption of chelate compounds to cells (HPLC and mass spectrometry); format: cell-based, human; details: for Adsorption HEK293: 50 µM chelate compound, 0, 30 and 90 minutes at 37 °C, % adsorbed relative to time zero
Source text: (§1) As a prerequisite for the understanding of the functional attributes of Tb-PCTMB and Eu-QCTME for diagnostics and therapeutic purposes, and for other uses, it is useful to synthesize a series of chelate compounds that contain structural elements of both PCTMB and QCTME and test these compounds for adsorption and permeability to different cell lines. The first approach was to test for adsorption to a normal cell line (HEK293) and to two epithelial cancer cell lines (LNCaP and Caco-2). The second approach, described in this example, involves testing only the compounds that adsorbed in the cancer cell lines and not in the normal cell lines for permeability. Adsorption and permeability of the compounds to epithelial cancer cell lines and a normal cell line was measured through the detection of the compound by HPLC and mass spectrometry.
(§2) Cell cultures. LNCaP cell line is a human prostate carcinoma. Cells were grown in RPMI 1640 Medium supplemented 10% FBS, 2 mM L-glutamine, glucose (2 g/L) augmented with gentamicin (50 μg/mL), penicillin/streptomycin (100 IU/mL/100 μg/mL) and amphotericin B (2.5 μg/mL). Caco-2 cell line is a human colorectal carcinoma. These cells were grown in Eagle's Minimum Essential Medium supplemented with 20% FBS, Earle's BSS, 2 mM L-glutamine, 1.0 mM sodium pyruvate, 0.1 mM nonessential amino acids augmented with gentamicin (50 μg/mL), penicillin/streptomycin (100 IU/mL/100 μg/mL), and amphotericin B (2.5 μg/mL). The human kidney transformed cells HEK293 were grown in Eagle's Minimum Essential Medium (EMEM) supplemented with 10% (v/v) heat-inactivated fetal bovine serum, sodium pyruvate, nonessential amino acids and antibiotics in a humidified 5% CO2 atmosphere at 37° C. Medium and supplements were purchased from Gibco BRL (Grand Island, N.Y.) and all cell lines were obtained from ATCC.
(§3) Detection of chelate compounds for the determination of adsorption. Cells were grown to confluence in T-150 flasks (about 2×10^7 cells). Before treating with chelate compounds, cells were rinsed twice with warm 10 mM HEPES (Gibco BRL, Grand Island N.Y.), removed from the flask, and transferred to a 50-mL conical tube and centrifuged (400×g) for 5 minutes. The resulting cells were treated with individual chelate compounds with 50 µM of chelate compounds in 10 mM HEPES, pH 7.4, 5 mM KCl, 150 mM NaCl, 0.7 mM NaH2PO4 for 0, 30, and 90 minutes at 37 ° C. After treatment, cells were pelleted by centrifugation and the resulting solution was analyzed by a combination of HPLC and mass spectrometry.

Caco-2 cells = test: as above; format: cell-based, human; details: for Adsorption Caco-2: 50 µM chelate compound, 0, 30 and 90 minutes at 37 °C, % adsorbed relative to time zero
Source text: as §1, §2, §3

LNCaP cells = test: as above; format: cell-based, human; details: for Adsorption LNCaP: 50 µM chelate compound, 0, 30 and 90 minutes at 37 °C, % adsorbed relative to time zero
Source text: as §1, §2, §3

[1] = Solubility of chelate compounds; details: <5% methanol, ethanol, or DMSO
T84 cell line = test: Chelate permeability: fluorescence of cytoplasm and membrane fractions; format: cell-based, human; details: 1 mM chelate, 2 h, Table 1
[2] = test system: etoposide-induced (apoptotic) HEK293 cells; test: Permeability of chelates to apoptotic cells, fluorescence of fractions; format: cell-based, human; details: for Fluorescence/mg Cytoplasm / Fluorescence/mg Membrane: HEK293 Apoptotic (etoposide 20 μM, 24 hours), 1 mM chelate, 2 hours; for differential fluorescence, cytoplasm versus membrane fractions: etoposide-induced HEK293 cells
Protocol: (§4) The human kidney transformed HEK293 cells (obtained from the ATCC) were grown in Eagle's Minimum Essential Medium (EMEM) supplemented with 10% (v/v) heat-inactivated fetal bovine serum, sodium pyruvate, nonessential amino acids and antibiotics in a humidified 5% CO2 atmosphere at 37° C. Medium and supplements were purchased from Gibco bRL (Grand Island, N.Y.). Etoposide was obtained from Sigma (St. Louis, Mo.) and prepared as 20 mM solution in dimethyl sulfoxide (DMSO). For treatments, etoposide was applied to the HEK293 cultures at 1:1000 dilution (final concentration of 20 μM) after cell became 75% confluent. As a control, cells were fed with medium containing 0.1% DMSO in the absence of etoposide. After treatment with etoposide, cells were incubated in a humidified 5% CO2 at 37° C. for 24 hours. HEK293 cells were collected by removing treatment medium and washed 2 times with 10 mM HEPES buffer. Final cell pellets were resuspended in a small amount of HEPES and stored at 4° C. for further study.
(§5) Cells were grown to confluence in T-150 flasks (about 2×10^6 cells). […] After treatment, the chelate or analogue supernatant was discarded and the cells were rinsed three times at room temperature with 10 mM HEPES. Cells were then removed from the flask by manual scraping. Cells were transferred to a 50-mL conical tube and centrifuged (400×g) for 5 minutes and the test material removed. Remaining cells were rinsed twice with cold 10 mM HEPES. Cells were used in cell binding assays.

[3] = test system: cancer cells (LNCaP, Caco-2, T84); test: Chelate permeability and specificity, cancer cells versus normal cells (summary); format: cell-based, human; details: for permeability to cell membranes: cancer cells
LNCaP cell line = test: Chelate permeability: fluorescence of cytoplasm and membrane fractions; format: cell-based, human; details: 1 mM chelate, 2 h, Table 1
[4] = test system: HEK293 cells, normal (non-induced); test: Permeability of chelates to HEK293 cells, fluorescence of fractions; format: cell-based, human; details: for Fluorescence/mg Cytoplasm / Fluorescence/mg Membrane: HEK293 Normal, 1 mM chelate, 2 hours; for differential fluorescence, cytoplasm versus membrane fractions: normal HEK293 cells
Protocol: as §4, §5

Caco-2 cell line = test: Chelate permeability: fluorescence of cytoplasm and membrane fractions; format: cell-based, human; details: 1 mM chelate, 2 h, Table 1

With `CCOP(=O)(O)Cc1c(C)c(CP(=O)(O)OCC)c(C)c(CP(=O)(O)OCC)c1C` [Compound 11, [3,5-Bis-(Ethoxy-hydroxy-phosphorylmethyl)-2,4,6-trimethyl-benzyl]-phosphonic acid monoethyl ester] the “Adsorption HEK293” value (HEK293 cells) was 0 (0 = 0-10%), the “Adsorption Caco-2” value (Caco-2 cells) was 0 (0 = 0-10%) and the “Adsorption LNCaP” value (LNCaP cells) was 0 (0 = 0-10%). The solubility [1] was > 10 mM.
For `CN(C)Cc1cc(CN(C)C)cc(CN(C)C)c1` [Compound 13, (3,5-Bis-dimethylaminomethyl-benzyl)-dimethylamine], the “Adsorption HEK293” value (HEK293 cells) was 0 (0 = 0-10%), the “Adsorption Caco-2” value (Caco-2 cells) was 0 (0 = 0-10%) and the “Adsorption LNCaP” value (LNCaP cells) was 0 (0 = 0-10%). For the same compound, the solubility [1] was > 10 mM.
In the case of `Cc1c(CN(C)C)c(C)c(CN(C)C)c(C)c1CN(C)C` [Compound 16, (3,5-Bis-dimethylaminomethyl-2,4,6-trimethyl-benzyl)-dimethyl-amine], the “Adsorption HEK293” value (HEK293 cells) is reported as 0 (0 = 0-10%), the “Adsorption Caco-2” value (Caco-2 cells) is reported as 0 (0 = 0-10%) and the “Adsorption LNCaP” value (LNCaP cells) is reported as 0 (0 = 0-10%). The solubility [1] was > 10 mM.
In the case of `COP(=O)(O)CNCCCN(CCCNCP(=O)(O)OC)CP(=O)(O)OC` [Compound 19, [(Bis-{3-[(hydroxy-methoxy-phosphorylmethyl)-amino]-propyl}-amino)-methyl]-phosphonic acid monomethyl ester], the “adsorption in normal cells (HEK293)” value (HEK293 cells) is reported as “adsorbed”, the “Adsorption HEK293” value (HEK293 cells) is reported as “++ (++ = 21-40%)” and the “Adsorption Caco-2” value (Caco-2 cells) is reported as “++ (++ = 21-40%)”. For the same compound, the “adsorption in carcinoma cell line Caco-2” value (Caco-2 cells; Caco-2) was “adsorbed”, the “adsorption in carcinoma cell line LNCaP” value (LNCaP cells) was “adsorbed” and the “Adsorption LNCaP” value (LNCaP cells) was “++ (++ = 21-40%)”. For the same compound, the solubility [1] was > 10 mM.
With `CCOP(=O)(O)CNCCCN(CCCNCP(=O)(O)OCC)CP(=O)(O)OCC` [Compound 20, [(Bis-{3-[(ethoxy-hydroxy-phosphorylmethyl)-amino]-propyl}-amino)-methyl]-phosphonic acid monoethyl ester] the “adsorption in normal cells (HEK293)” value (HEK293 cells) was “adsorbed”, the “Adsorption HEK293” value (HEK293 cells) was “++ (++ = 21-40%)” and the “Adsorption Caco-2” value (Caco-2 cells) was “++ (++ = 21-40%)”. The “adsorption in carcinoma cell line Caco-2” value (Caco-2 cells; Caco-2) was “adsorbed”, the “adsorption in carcinoma cell line LNCaP” value (LNCaP cells) was “adsorbed” and the “Adsorption LNCaP” value (LNCaP cells) was “++ (++ = 21-40%)”. The solubility [1] was > 10 mM.
For `CCN(CC)CCCN(CC)CCCN(CC)CC` [Compound 23, N-(3-Diethylamino-propyl)-N,N′,N′-triethyl-propane-1,3-diamine], the “adsorption in normal cells (HEK293)” value (HEK293 cells) was “adsorbed”, the “Adsorption HEK293” value (HEK293 cells) was “+ (+ = 11-20%)” and the “adsorption in carcinoma cell line Caco-2” value (Caco-2 cells) was “adsorbed”. For the same compound, the “Adsorption Caco-2” value (Caco-2 cells) was “++ (++ = 21-40%)”, the “adsorption in carcinoma cell line LNCaP” value (LNCaP cells) was “adsorbed” and the “Adsorption LNCaP” value (LNCaP cells) was “+ (+ = 11-20%)”. The solubility [1] was > 10 mM.
For `O=C([O-])CN1CCN(CC(=O)[O-])Cc2cccc(n2)CN(CC(=O)[O-])CC1.[Tb+3]` [Tb-PCTA], the “Fluorescence/mg Cytoplasm” value (T84 cell line) was 333.4, the “Fluorescence/mg Membrane” value (T84 cell line) was 329.1 and the “Fluorescence/mg Cytoplasm” value [2] was 652. The “Fluorescence/mg Membrane” value [2] was 678, the “differential fluorescence, cytoplasm versus membrane fractions” value [2] was “did not show any significant differential fluorescence” and the “specificity or selectivity for cancer cells versus normal cells” value [3] was “did not show any specificity or selectivity”. For the same compound, the “permeability to cell membranes” value [3] was “no permeability”, the “Fluorescence/mg Cytoplasm” value (LNCaP cell line) was 368.8 and the “Fluorescence/mg Membrane” value (LNCaP cell line) was 362.1. The “Fluorescence/mg Cytoplasm” value [4] was 686, the “Fluorescence/mg Membrane” value [4] was 685 and the “differential fluorescence, cytoplasm versus membrane fractions” value [4] was “did not show any significant differential fluorescence”. For the same compound, the “Fluorescence/mg Cytoplasm” value (Caco-2 cell line) was 366.3 and the “Fluorescence/mg Membrane” value (Caco-2 cell line) was 362.8.
In the case of `COP(=O)([O-])CN1CCN(CP(=O)([O-])OC)Cc2cccc(n2)CN(CP(=O)([O-])OC)CC1.[Tb+3]` [Tb-PCTMM], the “Fluorescence/mg Cytoplasm” value (T84 cell line) is reported as 328.3, the “Fluorescence/mg Membrane” value (T84 cell line) is reported as 358.7 and the “Fluorescence/mg Cytoplasm” value [2] is reported as 656. The “Fluorescence/mg Membrane” value [2] was 962, the “differential fluorescence, cytoplasm versus membrane fractions” value [2] was “did not show any significant differential fluorescence” and the “specificity or selectivity for cancer cells versus normal cells” value [3] was “did not show any specificity or selectivity”. The “permeability to cell membranes” value [3] was “no permeability”, the “Fluorescence/mg Cytoplasm” value (LNCaP cell line) was 344.5 and the “Fluorescence/mg Membrane” value (LNCaP cell line) was 379.5. For the same compound, the “Fluorescence/mg Cytoplasm” value [4] was 682, the “Fluorescence/mg Membrane” value [4] was 679 and the “differential fluorescence, cytoplasm versus membrane fractions” value [4] was “did not show any significant differential fluorescence”. The “Fluorescence/mg Cytoplasm” value (Caco-2 cell line) was 357.7 and the “Fluorescence/mg Membrane” value (Caco-2 cell line) was 388.9.
